Experimental data reported in patent US20130059903A1, “Compositions and Methods for Characterizing Breast Cancer” (THE JOHNS HOPKINS UNIVERSITY, priority 2010, published 2013).

What was measured:
Assay type in all cases: cell-based
[1] = test system: ER; assay: ER re-expression after methylation inhibitor / HDAC inhibitor treatment (qRT-PCR, immunoblot); settings: MCF-7/Twist cells; 1 μM AZA, 10 μM VPA, three days; qRT-PCR and immunoblotting
Description: Cells were treated with 1 μM AZA for three days and DNA processed for demethylation studies by methylation specific quantitative PCR (MS-qPCR). Total proteins were extracted and immunoblotted to analyze the effect of demethylation on ER expression. Cells were treated with HDAC inhibitor VPA at 10 μM concentration for three days and processed similarly.

[2] = test system: MCF-7/Twist cells; assay: Dye efflux assays
Description: (§1) Semiconfluent cells were washed once with HBSS and resuspended in growth medium at 1×10^6 cells/ml and 5 μg/ml Hoechst 33342 (Sigma-Aldrich, St. Louis, Mo.) and incubated for 45 minutes at 37° C. in a constant-temperature water bath. Subsequently, the cells were washed once in cold HBSS/2% BSA and resuspended in warm medium and incubated for 45 minutes at 37° C. for efflux. Cells were centrifuged and mounted on a slide before photomicroscopy.
(§2) For Rhodamine 123 (Sigma-Aldrich) staining, cells were trypsinized and washed twice in PBS/1% FCS. One million cells were resuspended in 100 μl of PBS/1% FCS and stained with 100 to 500 ng/ml Rhodamine 123 for 15 to 30 minutes at 37° C. Cells were washed twice at room temperature, resuspended, and incubated without Rhodamine 123 for 15 to 30 minutes at 37° C. to allow for efflux to occur. Rhodamine efflux was subsequently determined by flow cytometry on a FACScan II flow cytometer.

[3] = test system: MCF-7 cells; assay: Dye efflux assays
Description: as §1, §2

[4] = test system: MCF-7/Twist cells; assay: Cell cycle analysis by flow cytometry after anti-estrogen treatment; settings: 1 μM 4-hydroxytamoxifen or 1 nM fulvestrant in PRF-MEM/5% CSS, three days
Description: (§3) Cell lines were obtained from ATCC (Manassas, Va.) and maintained as instructed. Construction of MCF-7/Twist and MCF 10A/Twist cell lines have been described earlier (19, 23). For transient expression, cells were transfected using either retroviral constructs (generated in-house) or lentiviral constructs (Open Biosystems, Huntsville, Ala.). For hormone studies, cells were grown for two days in phenol-red free minimal essential media (PRF-MEM) containing 5% charcoal stripped serum (CSS). For anti-estrogen treatment, PRFMEM/5% CSS media was supplemented with 1 μM 4-hydroxytamoxifen (tamoxifen) or 1 nM fulvestrant. Three days following treatment, the cells were fixed in 70% ethanol and cell cycle analysis performed on a FacScan I (BD Biosciences, San Jose, Calif.). Independent experiments were repeated four times. Data was analyzed using FlowJo (Tree Star Inc., Ashland, Oreg.) and ModFit LT 2.0 software (Verity House Software, Topsham, Me.).

[5] = test system: MCF-7 cells; assay: as above; settings: 1 μM 4-hydroxytamoxifen or 1 nM fulvestrant in PRF-MEM/5% CSS, three days
Description: as §3

[6] = 5 μg/ml Hoechst 33342, 45 minutes efflux, microscopy

Q: Which “ER expression (transcript and protein levels)” value [1] does the source give for `Nc1ncn([C@H]2C[C@H](O)[C@@H](CO)O2)c(=O)n1` [AZA, 5-aza 2′-deoxycytidine] here?
A: significant increase

Q: `CCOc1ccc(-c2nc3ccc(-c4nc5ccc(N6CCN(C)CC6)cc5[nH]4)cc3[nH]2)cc1` [Hoechst 33342] was tested. Which “relative fluorescence intensity per cell (dye retained after efflux)” value [2, 6] did it give?
A: 57

Q: What about the “relative fluorescence intensity per cell (dye retained after efflux)” value [3, 6] of the same compound?
A: 65

Q: Which “ER expression (transcript and protein levels)” value [1] does the source give for `CCCC(CCC)C(=O)O` [VPA, valproic acid] here?
A: significant increase

Q: With `C[C@]12CC[C@@H]3c4ccc(O)cc4C[C@@H](CCCCCCCCC[S+]([O-])CCCC(F)(F)C(F)(F)F)[C@H]3[C@@H]1CC[C@@H]2O` (stereo partly drawn) [fulvestrant] as the compound, how does the “G1 (percentage of cells in cell cycle phase)” value [4] read?
A: 67.7%

Q: What about the “G2/M (percentage of cells in cell cycle phase)” value [4] of the same compound?
A: 13.3%

Q: And the “S (percentage of cells in cell cycle phase)” value [4]?
A: 16.6%

Q: And the “G1 (percentage of cells in cell cycle phase)” value [5]?
A: 86%

Q: What about the “G2/M (percentage of cells in cell cycle phase)” value [5] of the same compound?
A: 5.8%

Q: And the “S (percentage of cells in cell cycle phase)” value [5]?
A: 3.9%

Q: Which “mean fluorescence intensity (dye retained after efflux)” value ([2]; Rhodamine 123, flow cytometry) does the source give for Rhodamine 123 here?
A: 96

Q: What about the “mean fluorescence intensity (dye retained after efflux)” value ([3]; Rhodamine 123, flow cytometry) of the same compound?
A: 205
